Assay results from PubChem BioAssay AID256 (DTP/NCI, 2004).
“And” between values parts separate entries of the source, which are not always exact repeats. Equal entries are not always repeated. Inconclusive results and toxic doses are left out. How the source made its calls: active means survival T/C of 150% or more; inactive means T/C below 125% in these data.

System: CD2F1 mice, L1210 leukemia ip, survival T/C
Experiment: NCI In Vivo Anticancer Drug Screen. Data for tumor model L1210 Leukemia (intraperitoneal) in CD2F1 (CDF1) mice
Details: higher = longer survival
Method in brief: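 Vehicle-treated tumor-bearing mice served as controls (C) for compound-treated mice (T). Reported figure is T divided by C.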

[1] = endpoint: mean survival time, dose: 75.0 mg/kg/injection, schedule: Q01DX001 (ip), vehicle: other
[2] = endpoint: mean survival time, dose: 150.0 mg/kg/injection, schedule: Q01DX001 (ip), vehicle: other
[3] = endpoint: mean survival time, dose: 300.0 mg/kg/injection, schedule: Q01DX001 (ip), vehicle: other
[4] = endpoint: mean survival time, dose: 100.0 mg/kg/injection, schedule: Q01DX001 (ip), vehicle: saline with Tween-80
[5] = endpoint: mean survival time, dose: 200.0 mg/kg/injection, schedule: Q01DX001 (ip), vehicle: saline with Tween-80
[6] = endpoint: mean survival time, dose: 100.0 mg/kg/injection, schedule: Q01DX009 (ip), vehicle: saline sonified
[7] = endpoint: mean survival time, dose: 100.0 mg/kg/injection, schedule: Q04DX003 (ip), vehicle: saline
[8] = endpoint: mean survival time, dose: 200.0 mg/kg/injection, schedule: Q04DX003 (ip), vehicle: saline
[9] = endpoint: mean survival time, dose: 100.0 mg/kg/injection, schedule: Q04DX003 (ip), vehicle: saline with Tween-80
[10] = endpoint: mean survival time, dose: 200.0 mg/kg/injection, schedule: Q04DX003 (ip), vehicle: saline with Tween-80
[11] = endpoint: mean survival time, dose: 400.0 mg/kg/injection, schedule: Q04DX003 (ip), vehicle: saline with Tween-80
[12] = endpoint: mean survival time, dose: 100.0 mg/kg/injection, schedule: Q01DX009 (ip), vehicle: saline with Tween-80
[13] = endpoint: mean survival time, dose: 200.0 mg/kg/injection, schedule: Q01DX009 (ip), vehicle: saline with Tween-80
[14] = endpoint: mean survival time, dose: 50.0 mg/kg/injection, schedule: Q01DX009 (ip), vehicle: saline with Tween-80
[15] = endpoint: mean survival time, dose: 6.25 mg/kg/injection, schedule: Q01DX009 (ip), vehicle: saline

Measured: T/C

CCCCCCCCCCCCCCC/C(=C\c1ccc2ccccc2c1)[N+](=O)[O-]
inactive: [1] 95 % of control | [2] 89 % of control | [3] 102 % of control

CC/C=C/CC(=O)NCc1ccc(O)c(OC)c1
inactive: [4] 101 % of control | [5] 103 % of control

Cc1ncc2cnccn12
inactive: endpoint: mean survival time, dose: 50.0 mg/kg/injection, schedule: Q01DX009 (ip), vehicle: saline sonified 101 % of control | [6] 104 % of control | [7] 97 % of control | [8] 101 % of control

Clc1ccc(C2SC=Cc3ccccc32)cc1 (centres undefined)
inactive: endpoint: median survival time, dose: 25.0 mg/kg/injection, schedule: Q01DX009 (ip), vehicle: Klucel (hydroxypropylcellulose) (HPC) 110 % of control | endpoint: median survival time, dose: 50.0 mg/kg/injection, schedule: Q01DX009 (ip), vehicle: Klucel (hydroxypropylcellulose) (HPC) 104 % of control | endpoint: median survival time, dose: 100.0 mg/kg/injection, schedule: Q01DX009 (ip), vehicle: Klucel (hydroxypropylcellulose) (HPC) 109 % of control | endpoint: median survival time, dose: 200.0 mg/kg/injection, schedule: Q01DX009 (ip), vehicle: Klucel (hydroxypropylcellulose) (HPC) 104 % of control

ClCCN(CCCl)CCCN1c2ccccc2Sc2ccc(Cl)cc21
inactive: endpoint: mean survival time, dose: 18.0 mg/kg/injection, schedule: Q01DX001 (ip), vehicle: saline with Tween-80 103 % of control | endpoint: mean survival time, dose: 28.0 mg/kg/injection, schedule: Q01DX001 (ip), vehicle: saline with Tween-80 100 % of control | endpoint: mean survival time, dose: 40.0 mg/kg/injection, schedule: Q01DX001 (ip), vehicle: saline with Tween-80 97 % of control | endpoint: mean survival time, dose: 60.0 mg/kg/injection, schedule: Q01DX001 (ip), vehicle: saline with Tween-80 103 % of control | endpoint: mean survival time, dose: 90.0 mg/kg/injection, schedule: Q01DX001 (ip), vehicle: saline with Tween-80 107 % of control | endpoint: mean survival time, dose: 135.0 mg/kg/injection, schedule: Q01DX001 (ip), vehicle: saline with Tween-80 112 % of control

CC(=O)Nc1c([N+](=O)[O-])cc2c3c(cccc13)C=C2
inactive: [9] 95 % of control | [10] 92 % of control | [11] 104 % of control

Cc1[nH]c2ccccc2c1C1=CC(=O)c2ccccc2C1=O
inactive: [9] 106 % of control | [10] 104 % of control | [11] 104 % of control

CCN(CC)Cc1cc(O)ccc1NCCCNc1ccnc2cc(Cl)ccc12
inactive: [9] 96 % of control

O=C(NC(=O)c1ccccc1)NS(=O)(=O)c1ccccc1
inactive: [12] 113 % of control | [13] 109 % of control | endpoint: mean survival time, dose: 400.0 mg/kg/injection, schedule: Q01DX009 (ip), vehicle: saline with Tween-80 98 % of control

Nc1ccc(S(=O)(=O)S(=O)(=O)c2ccc(N)cc2)cc1
inactive: [4] 93 % of control | [5] 97 % of control

Cn1c(-c2ccccc2)cc(=O)cc1-c1ccccc1
inactive: [14] 96 % of control | [12] 93 % of control | [9] 91 % of control | [13] 94 % of control | [10] 97 % of control

Cc1cccc(-c2nn[nH]n2)n1
inactive: endpoint: mean survival time, dose: 12.5 mg/kg/injection, schedule: Q01DX001 (ip), vehicle: saline with Tween-80 98 % of control | endpoint: mean survival time, dose: 25.0 mg/kg/injection, schedule: Q01DX001 (ip), vehicle: saline with Tween-80 90 % of control | endpoint: mean survival time, dose: 100.0 mg/kg/injection, schedule: Q01DX001 (ip), vehicle: saline 103 % of control | endpoint: mean survival time, dose: 200.0 mg/kg/injection, schedule: Q01DX001 (ip), vehicle: saline 113 % of control | endpoint: mean survival time, dose: 400.0 mg/kg/injection, schedule: Q01DX001 (ip), vehicle: saline 101 % of control

Cc1cn(C2OC(CO)C(O)C2O)c([Se])nc1=O (centres undefined)
inactive: endpoint: mean survival time, dose: 50.0 mg/kg/injection, schedule: Q01DX005 (ip), vehicle: water 97 % of control | endpoint: mean survival time, dose: 100.0 mg/kg/injection, schedule: Q01DX005 (ip), vehicle: water 90 % of control | endpoint: mean survival time, dose: 200.0 mg/kg/injection, schedule: Q01DX005 (ip), vehicle: water 90 % of control

CC(=O)NCCCN1CCOCC1
inactive: [7] 96 % of control | [8] 104 % of control | endpoint: mean survival time, dose: 400.0 mg/kg/injection, schedule: Q04DX003 (ip), vehicle: saline 98 % of control

O=C(O)CN(CCO)CCN(CC(=O)O)CC(=O)O
inactive: endpoint: mean survival time, dose: 25.0 mg/kg/injection, schedule: Q01DX009 (ip), vehicle: saline with Tween-80 102 % of control | [14] 108 % of control | [12] 105 % of control | [7] 104 % of control

C[n+]1cccc(C(=O)c2ccccc2)c1
inactive: [1] 100 % of control

O=C(O)CCN1CCS(=O)(=O)C1=S
inactive: [1] 101 % of control | [2] 95 % of control | [3] 104 % of control

CCN(CC)CCCNc1c2ccc(Cl)cc2nc2ccc(OC)nc12
inactive: [14] 109 % of control | [12] 97 % of control | [13] 114 % of control

Cc1c2c(ccc3ccccc32)c[n+]2ccccc12
inactive: endpoint: mean survival time, dose: 1.56 mg/kg/injection, schedule: Q01DX009 (ip), vehicle: saline 98 % of control and 100 % of control | endpoint: mean survival time, dose: 3.12 mg/kg/injection, schedule: Q01DX009 (ip), vehicle: saline 103 % of control and 106 % of control | [15] 104 % of control and 105 % of control | endpoint: mean survival time, dose: 12.5 mg/kg/injection, schedule: Q01DX009 (ip), vehicle: saline 103 % of control and 108 % of control

COc1ncnc2c1c(C#N)cn2C1OC(CO)C(O)C1O (centres undefined)
inactive: [15] 117 % of control | endpoint: mean survival time, dose: 25.0 mg/kg/injection, schedule: Q01DX009 (ip), vehicle: saline 109 % of control | endpoint: mean survival time, dose: 50.0 mg/kg/injection, schedule: Q01DX009 (ip), vehicle: saline 124 % of control | endpoint: mean survival time, dose: 100.0 mg/kg/injection, schedule: Q01DX009 (ip), vehicle: saline 91 % of control

CCOC(=O)c1cc(=O)n(C)c2ccc(OCC)cc12
inactive: [6] 101 % of control | [9] 100 % of control | endpoint: mean survival time, dose: 200.0 mg/kg/injection, schedule: Q01DX009 (ip), vehicle: saline sonified 97 % of control | [10] 91 % of control | endpoint: mean survival time, dose: 400.0 mg/kg/injection, schedule: Q01DX009 (ip), vehicle: saline sonified 97 % of control | [11] 91 % of control

C=CCOc1c(C)cc(C(C)(C)c2cc(C)c(OCC=C)c(C)c2)cc1C
inactive: endpoint: mean survival time, dose: 25.0 mg/kg/injection, schedule: Q01DX001 (ip), vehicle: other 104 % of control | endpoint: mean survival time, dose: 50.0 mg/kg/injection, schedule: Q01DX001 (ip), vehicle: other 103 % of control | endpoint: mean survival time, dose: 100.0 mg/kg/injection, schedule: Q01DX001 (ip), vehicle: other 94 % of control and 97 % of control | endpoint: mean survival time, dose: 400.0 mg/kg/injection, schedule: Q01DX001 (ip), vehicle: other 96 % of control

C=C(Br)COCC
inactive: [9] 89 % of control

S=c1[nH]c2ccccc2n1CCc1ccncc1
inactive: endpoint: mean survival time, dose: 100.0 mg/kg/injection, schedule: Q#A X016 (ip), vehicle: saline 108 % of control | endpoint: mean survival time, dose: 200.0 mg/kg/injection, schedule: Q#A X016 (ip), vehicle: saline 95 % of control | endpoint: mean survival time, dose: 400.0 mg/kg/injection, schedule: Q## X016 (ip), vehicle: saline 102 % of control | endpoint: mean survival time, dose: 400.0 mg/kg/injection, schedule: Q#A X016 (ip), vehicle: saline 98 % of control | endpoint: mean survival time, dose: 800.0 mg/kg/injection, schedule: Q## X016 (ip), vehicle: saline 100 % of control | endpoint: mean survival time, dose: 1600.0 mg/kg/injection, schedule: Q## X016 (ip), vehicle: saline 100 % of control

O=C1[O][Hg][c]2cccc3cccc1c23
inactive: endpoint: mean survival time, dose: 2.5 mg/kg/injection, schedule: Q01DX009 (ip), vehicle: saline with Tween-80 88 % of control | endpoint: mean survival time, dose: 5.0 mg/kg/injection, schedule: Q01DX009 (ip), vehicle: saline with Tween-80 94 % of control | endpoint: mean survival time, dose: 10.0 mg/kg/injection, schedule: Q01DX009 (ip), vehicle: saline with Tween-80 95 % of control

CCCN(CCC)C(=S)[S-].CCCN(CCC)C(=S)[S-].[Zn]
inactive: endpoint: mean survival time, dose: 75.0 mg/kg/injection, schedule: Q04DX003 (ip), vehicle: saline 95 % of control | endpoint: mean survival time, dose: 150.0 mg/kg/injection, schedule: Q04DX003 (ip), vehicle: saline 86 % of control | endpoint: mean survival time, dose: 300.0 mg/kg/injection, schedule: Q04DX003 (ip), vehicle: saline 101 % of control
